In patent US20090176839A1, “FORMULATIONS OF 3-(6-(1-(2,2-DIFLUOROBENZO[D][1,3]DIOXOL-5-YL) CYCLOPROPANECARBOXAMIDO)-3-METHYLPYRIDIN-2-YL)BENZOIC ACID” (priority 2007, published 2009):
Where two headings read alike, the source gives them in different places.

Tests used:
[1] = Acute oral toxicity study in rats; details: rat, in vivo, po
Method: (§1) The intended clinical route of administration is oral, thus oral toxicity studies were done in mice, rats and dogs. […] Effects of repeat oral dosing were assessed in rats and dogs in preliminary 7-day toxicity studies followed by a 14-day GLP1 toxicity studies.

rats [2] = test: Acute oral toxicity study in rats; details: rats; single oral doses 500, 1000 or 2000 mg/kg
Method: as §1

in vivo [3] = test: in vivo; set-up: species or system rats; details: rat
Method: (§2) The animals were dosed orally with the vehicle (0.5% methylcellulose in water), or 15, 75, or 150 mg/kg Compound 1 twice daily for 7 consecutive days. The two daily doses were administered approximately 10 hours apart and the dose volume was 5 mL/kg/b.i.d. for all dose groups. At the end of the dosing period, all animals were euthanized and necropsied. Satellite animals (6/sex/Groups 2-4) were dosed in the same manner as the toxicity animals and plasma samples were collected on Days 1 and 7 for toxicokinetic (TK) analysis. Parameters evaluated during the study were: viability, clinical observations, body weights, feed consumption, clinical pathology (termination), organ weights, macroscopic observations and microscopic pathology.

rats [4] = test: in vivo; details: rat
Method: as §2

[5] = Toxicokinetics in 7-day dose range finding study in rats; type: in vivo; details: 300 mg/kg/day; for Cmax: rat, plasma, oral
Method: as §2
The plasma AUC0-24 data on Day 1 was consistent with previously conducted single dose studies of Compound 1 in the rat.

in vivo [6] = test: in vivo; set-up: species or system dogs; details: both sexes, dog
Method: (§3) One dog per gender was dosed orally with the vehicle (0.5% methylcellulose+0.5% Tween80 in water), or 25, 50, or 100 mg/kg/day Compound 1 for 7 consecutive days. The dose volume was 5 mL/kg/day for all dose groups. Plasma samples were collected on Days 1 and 7 for TK analysis and viability, clinical observations, body weights, feed consumption, clinical pathology (termination), organ weights, macroscopic observations, and microscopic pathology were evaluated.

dogs = test: in vivo; details: dog
Method: as §3

[7] = Toxicokinetics in 14-day oral toxicity study in dogs; details: dog, in vivo, 200 mg/kg/day
Text: There were no major differences noted in TK parameters between males and females, or when comparing study Day 1 to study Day 14.

Solubility (statement) = type: physicochemical; details: aqueous medium
[8] = male, beagle, dog, in vivo, 200 mg/kg
rats [9] = test: 14-day repeat-dose oral toxicity study in rats; details: assuming efficacious dose in rats 2.3 mg/kg b.i.d. (Ctrough at EC90)
Method: Repeat-dose oral toxicity studies of 7- and 14-days duration have been conducted in rats (up to 600 mg/kg/day) and dogs (up to 200 mg/kg/day).

For `Cc1ccc(NC(=O)C2(c3ccc4c(c3)OC(F)(F)O4)CC2)nc1-c1cccc(C(=O)O)c1` [Compound 1, 3-(6-(1-(2,2-difluorobenzo[d][1,3]dioxol-5-yl)cyclopropanecarboxamido)-3-methylpyridin-2-yl)benzoic acid], the MTD at 14 days [1] was greater than 2000 mg/kg, the NOAEL at 14 days [1] was greater than 2000 mg/kg and the “organ weights and gross observations at necropsy” value (rats [2]) was “no effects on organ weights and no gross observations”. The NOAEL at 7 days (in vivo [3]) was 300 mg/kg/day, the “gross lesions and histopathological findings” value (rats [4]) was “no test article related gross lesions or histopathological findings” and the adrenal gland weights (rats [4]; 300 mg/kg/day) was “higher adrenal gland weights”. The body weight (rats [4]; 300 mg/kg/day) was “minor effects on body weight”, the serum potassium (rats [4]; 300 mg/kg/day) was “lower serum potassium” and the “urinary pH” value (rats [4]; 300 mg/kg/day) was “slight increase in urinary pH”. The average plasma concentrations ([5]; females) was roughly 190 µM, the Cmax ([5]; female, females) was roughly 280 µM and the Cmax ([5]; male, males) was roughly 430 µM. For the same compound, the NOAEL at 7 days (in vivo [6]) was 100 mg/kg/day, the “food consumption, hematologies, coagulations parameters, ECG measurements” value (dogs) was “no effects” and the “gross lesions and histopathological findings” value (dogs) was “no test article related gross lesions or histopathological findings”. The body weight loss (dogs; 100 mg/kg/day) was 0.3 kg, the AUC(0-t) ([7]; both sexes, dogs, at the NOAEL (200 mg/kg/day), read-out: average AUC0-24hr) was 645 µg·h/mL and the Cmax ([7]; both sexes, dogs, at the NOAEL (200 mg/kg/day), read-out: average Cmax) was 75 µg/mL. It also gave a Tmax ([7]; female, beagle, Study Day 1, Female) of 4 h, an AUC(0-t) ([7]; female, beagle, Study Day 1, Female, read-out: AUC0-24 hr) of 573 µg·h/mL and a Cmax ([7]; female, beagle, Study Day 1, Female, read-out: Cmax) of 56 µg/mL. The Tmax ([7]; female, beagle, Study Day 14, Female) was 3 h, the AUC(0-t) ([7]; female, beagle, Study Day 14, Female, read-out: AUC0-24 hr) was 720 µg·h/mL and the Cmax ([7]; female, beagle, Study Day 14, Female, read-out: Cmax) was 77 µg/mL. It also gave a Tmax ([7]; male, beagle, Study Day 1, Male) of 3 h, an AUC(0-t) ([7]; male, beagle, Study Day 1, Male, read-out: AUC0-24 hr) of 691 µg·h/mL and a Cmax ([7]; male, beagle, Study Day 1, Male, read-out: Cmax) of 77 µg/mL. The Tmax ([7]; male, beagle, Study Day 14, Male) was 3 h, the AUC(0-t) ([7]; male, beagle, Study Day 14, Male, read-out: AUC0-24 hr) was 598 µg·h/mL and the Cmax ([7]; male, beagle, Study Day 14, Male, read-out: Cmax) was 72 µg/mL. For the same compound, the solubility (Solubility (statement)) was “low solubility”, the F [8] was 20% and the tlast [8] was 48 h. The “projected safety margin from the rat NOAEL” value (rats [9]) was 130 ×.
